Patent US6355799B1, “Substituted benzene compounds, process for their preparation, and herbicidal and defoliant compositions containing them” (ISK Americas Incorporated, priority 1997, dated 2002)

What was measured:
Format in all cases: in vivo
[1] = test system: sicklepod (Cassia obtusifolia, CASOB); assay: Pre-emerge test, greenhouse herbicide activity screening; conditions: pre-emerge, rated 14 days after application, 0 = no damage, 100 = complete death
Summary of the method: (§1)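 Herbicidal damage is scored 0 (none) to 100 (complete plant death) two weeks after a simulated field spray. Rates span 15–1000 g ai/ha, delivered in acetone at 187 l/ha. For post-emergence treatments, plants have 2–3 leaves and the spray carries 0.25% v/v non-ionic surfactant.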

[2] = test system: johnsongrass (Sorghum halepense, SORHA); assay: as above; conditions: pre-emerge, rated 14 days after application, 0 = no damage, 100 = complete death
Summary of the method: as §1

[3] = test system: lambsquarters (Chenopodium album, CHEAL); assay: as above; conditions: pre-emerge, rated 14 days after application, 0 = no damage, 100 = complete death
Summary of the method: as §1

[4] = test system: barnyardgrass (Echinochloa crus-galli, ECHCG); assay: as above; conditions: pre-emerge, rated 14 days after application, 0 = no damage, 100 = complete death
Summary of the method: as §1

[5] = test system: common ragweed (Ambrosia artemisizfolia L., AMBEL); assay: as above; conditions: pre-emerge, rated 14 days after application, 0 = no damage, 100 = complete death
Summary of the method: as §1

[6] = test system: velvetleaf (Abutilon theophrasti, ABUTH); assay: as above; conditions: pre-emerge, rated 14 days after application, 0 = no damage, 100 = complete death
Summary of the method: as §1

[7] = test system: large crabgrass (Digitaria sanguinalis, DIGSA); assay: as above; conditions: pre-emerge, rated 14 days after application, 0 = no damage, 100 = complete death
Summary of the method: as §1

[8] = test system: ivyleaf morningglory (Ipomoea hederacea, IPOHE); assay: as above; conditions: pre-emerge, rated 14 days after application, 0 = no damage, 100 = complete death
Summary of the method: as §1

[9] = test system: green foxtail (Setaria viridis, SETVI); assay: as above; conditions: pre-emerge, rated 14 days after application, 0 = no damage, 100 = complete death
Summary of the method: as §1

[10] = test system: field corn (Zea mays L., var. Dekalb 535, CORN); assay: Post-emerge test, crop safety; conditions: phytotoxicity rating 0-100 (0 no damage, 100 complete death), 14 days after application
Summary of the method: as §1

[11] = test system: upland rice (Oryza sp., var. Tebonnet, RICE); assay: Post-emerge test, crop safety; conditions: phytotoxicity rating 0-100 (0 no damage, 100 complete death), 14 days after application
Summary of the method: as §1

[12] = test system: sicklepod (Cassia obtusifolia, CASOB); assay: Post-emerge test, greenhouse herbicide activity screening; conditions: phytotoxicity rating 0-100 (0 no damage, 100 complete death), 14 days after application
Summary of the method: (§2)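 Plants grown in 10 cm pots of sandy loam mix received acetone-dissolved compounds through a moving flat-fan nozzle. Doses ranged from 15 to 1000 g ai/ha. Pre-emerge pots were seeded one day earlier, post-emerge pots 8–21 days earlier. Fourteen days on, each pot was graded 0–100 for damage.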

[13] = test system: redroot pigweed (Amaranthus retroflexus, AMARE); assay: as above; conditions: phytotoxicity rating 0-100 (0 no damage, 100 complete death), 14 days after application
Summary of the method: as §2

[14] = test system: johnsongrass (Sorghum halepense, SORHA); assay: as above; conditions: phytotoxicity rating 0-100 (0 no damage, 100 complete death), 14 days after application
Summary of the method: as §2

[15] = test system: lambsquarters (Chenopodium album, CHEAL); assay: as above; conditions: phytotoxicity rating 0-100 (0 no damage, 100 complete death), 14 days after application
Summary of the method: as §2

[16] = test system: barnyardgrass (Echinochloa crus-galli, ECHCG); assay: as above; conditions: phytotoxicity rating 0-100 (0 no damage, 100 complete death), 14 days after application
Summary of the method: as §2

[17] = test system: common ragweed (Ambrosia artemisizfolia L., AMBEL); assay: as above; conditions: phytotoxicity rating 0-100 (0 no damage, 100 complete death), 14 days after application
Summary of the method: as §2

[18] = test system: velvetleaf (Abutilon theophrasti, ABUTH); assay: as above; conditions: phytotoxicity rating 0-100 (0 no damage, 100 complete death), 14 days after application
Summary of the method: as §2

[19] = test system: large crabgrass (Digitaria sanguinalis, DIGSA); assay: as above; conditions: phytotoxicity rating 0-100 (0 no damage, 100 complete death), 14 days after application
Summary of the method: as §2

[20] = test system: ivyleaf morningglory (Ipomoea hederacea, IPOHE); assay: as above; conditions: phytotoxicity rating 0-100 (0 no damage, 100 complete death), 14 days after application
Summary of the method: as §2

[21] = test system: green foxtail (Setaria viridis, SETVI); assay: as above; conditions: phytotoxicity rating 0-100 (0 no damage, 100 complete death), 14 days after application
Summary of the method: as §2

[22] = test system: field corn (Zea mays L., var. Dekalb 535, CORN); assay: Pre-emerge test, crop safety; conditions: pre-emerge, rated 14 days after application, 0 = no damage, 100 = complete death
Summary of the method: (§3)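 Compounds in acetone were track-sprayed at 15-1000 g ai/ha (187 l/ha) on sandy loam pots: pre-emerge one day after seeding, post-emerge at 2-3 leaf stage with 0.25% v/v non-ionic surfactant. Phytotoxicity was rated 14 days later on a 0 (no damage) to 100 (complete death) scale.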

[23] = test system: upland rice (Oryza sp., var. Tebonnet, RICE); assay: Pre-emerge test, crop safety; conditions: pre-emerge, rated 14 days after application, 0 = no damage, 100 = complete death
Summary of the method: as §3

[24] = test system: redroot pigweed (Amaranthus retroflexus, AMARE); assay: Pre-emerge test, greenhouse herbicide activity screening; conditions: pre-emerge, rated 14 days after application, 0 = no damage, 100 = complete death
Summary of the method: as §1

COc1c(Cl)cc(F)c(-n2c(=O)cc(C(F)(F)F)n(N)c2=O)c1N [Compound 1-13]
Pre-emerge Herbicidal Activity CASOB (phytotoxicity rating, scale 0-100) ([1]; 63 g ai/ha): 80 | Pre-emerge Herbicidal Activity CASOB (phytotoxicity rating, scale 0-100) ([1]; 250 g ai/ha): 100 | Pre-emerge Herbicidal Activity SORHA (phytotoxicity rating, scale 0-100) ([2]; 63 g ai/ha): 95 | Pre-emerge Herbicidal Activity SORHA (phytotoxicity rating, scale 0-100) ([2]; 250 g ai/ha): 100 | Pre-emerge Herbicidal Activity CHEAL (phytotoxicity rating, scale 0-100) ([3]; 63 g ai/ha): 100 | Pre-emerge Herbicidal Activity CHEAL (phytotoxicity rating, scale 0-100) ([3]; 250 g ai/ha): 100 | Pre-emerge Herbicidal Activity ECHCG (phytotoxicity rating, scale 0-100) ([4]; 63 g ai/ha): 90 | Pre-emerge Herbicidal Activity ECHCG (phytotoxicity rating, scale 0-100) ([4]; 250 g ai/ha): 100 | Pre-emerge Herbicidal Activity AMBEL (phytotoxicity rating, scale 0-100) ([5]; 63 g ai/ha): 100 | Pre-emerge Herbicidal Activity AMBEL (phytotoxicity rating, scale 0-100) ([5]; 250 g ai/ha): 100 | Pre-emerge Herbicidal Activity ABUTH (phytotoxicity rating, scale 0-100) ([6]; 63 g ai/ha): 100 | Pre-emerge Herbicidal Activity ABUTH (phytotoxicity rating, scale 0-100) ([6]; 250 g ai/ha): 100 | Pre-emerge Herbicidal Activity DIGSA (phytotoxicity rating, scale 0-100) ([7]; 63 g ai/ha): 100 | Pre-emerge Herbicidal Activity DIGSA (phytotoxicity rating, scale 0-100) ([7]; 250 g ai/ha): 100 | Pre-emerge Herbicidal Activity IPOHE (phytotoxicity rating, scale 0-100) ([8]; 63 g ai/ha): 100 | Pre-emerge Herbicidal Activity IPOHE (phytotoxicity rating, scale 0-100) ([8]; 250 g ai/ha): 100 | Pre-emerge Herbicidal Activity SETVI (phytotoxicity rating, scale 0-100) ([9]; 63 g ai/ha): 100 | Pre-emerge Herbicidal Activity SETVI (phytotoxicity rating, scale 0-100) ([9]; 250 g ai/ha): 100 | Post-emerge Herbicidal Activity CORN (crop damage) ([10]; 63 g ai/ha): 20 | Post-emerge Herbicidal Activity CORN (crop damage) ([10]; 250 g ai/ha): 80 | Post-emerge Herbicidal Activity RICE (crop damage) ([11]; 63 g ai/ha): 30 | Post-emerge Herbicidal Activity RICE (crop damage) ([11]; 250 g ai/ha): 80 | Post-emerge Herbicidal Activity CASOB ([12]; 63 g ai/ha): 30 | Post-emerge Herbicidal Activity CASOB ([12]; 250 g ai/ha): 70 | Post-emerge Herbicidal Activity AMARE ([13]; 63 g ai/ha): 100 | Post-emerge Herbicidal Activity AMARE ([13]; 250 g ai/ha): 100 | Post-emerge Herbicidal Activity SORHA ([14]; 63 g ai/ha): 10 | Post-emerge Herbicidal Activity SORHA ([14]; 250 g ai/ha): 90 | Post-emerge Herbicidal Activity CHEAL ([15]; 63 g ai/ha): 100 | Post-emerge Herbicidal Activity CHEAL ([15]; 250 g ai/ha): 100 | Post-emerge Herbicidal Activity ECHCG ([16]; 63 g ai/ha): 30 | Post-emerge Herbicidal Activity ECHCG ([16]; 250 g ai/ha): 70 | Post-emerge Herbicidal Activity AMBEL ([17]; 63 g ai/ha): 70 | Post-emerge Herbicidal Activity AMBEL ([17]; 250 g ai/ha): 85 | Post-emerge Herbicidal Activity ABUTH ([18]; 63 g ai/ha): 100 | Post-emerge Herbicidal Activity ABUTH ([18]; 250 g ai/ha): 100 | Post-emerge Herbicidal Activity DIGSA ([19]; 63 g ai/ha): 0 | Post-emerge Herbicidal Activity DIGSA ([19]; 250 g ai/ha): 75 | Post-emerge Herbicidal Activity IPOHE ([20]; 63 g ai/ha): 100 | Post-emerge Herbicidal Activity IPOHE ([20]; 250 g ai/ha): 100 | Post-emerge Herbicidal Activity SETVI ([21]; 63 g ai/ha): 30 | Post-emerge Herbicidal Activity SETVI ([21]; 250 g ai/ha): 90 | Pre-emerge crop damage CORN (phytotoxicity rating, scale 0-100) ([22]; 63 g ai/ha): 60 | Pre-emerge crop damage CORN (phytotoxicity rating, scale 0-100) ([22]; 250 g ai/ha): 95 | Pre-emerge crop damage RICE (phytotoxicity rating, scale 0-100) ([23]; 63 g ai/ha): 95 | Pre-emerge crop damage RICE (phytotoxicity rating, scale 0-100) ([23]; 250 g ai/ha): 100 | Pre-emerge Herbicidal Activity AMARE (phytotoxicity rating, scale 0-100) ([24]; 63 g ai/ha): 100 | Pre-emerge Herbicidal Activity AMARE (phytotoxicity rating, scale 0-100) ([24]; 250 g ai/ha): 100
